Reference: patent US9284276B2, “N-ethyl-N-phenyl-1,2-dihydro-4,5-di-hydroxy-1-methyl-2-oxo-3-quinolinecarboxamide, preparation and uses thereof” (TEVA PHARMACEUTICAL INDUSTRIES, LTD., priority 2012, dated 2016)

What was measured:
[1] = in vivo; cited from earlier work
[2] = Stability of 5-HLAQ in solvents; assay type: physicochemical; details: in most of the organic solvents as well as in aqueous acidic conditions
From the text: N-Ethyl-N-phenyl-1,2-dihydro-4,5-di-hydroxy-1-methyl-2-oxo-3-quinolinecarboxamide (5-HLAQ) is not stable in most of the organic solvents as well as in aqueous acidic conditions. Therefore common purification methods were extremely difficult. The di-acetate derivative Compound 3 is an elegant way to purify the material followed only by basic hydrolysis, acidic precipitation and rapid filtration.

[3] = Formation of 5-HLAQ on light exposure of laquinimod, determined by HPLC; assay type: physicochemical
Method: Various forms of laquinimod were exposed to light, as specified below. Presence of 5-HLAQ was determined using HPLC.

[4] = Influence of blister pack material on photo-degradation of laquinimod 0.6 mg capsules; assay type: physicochemical
Method: The goal of this study is to examine the photo-degradation of laquinimod sodium capsules, 0.6 mg, packed in blisters of various materials.
One batch of laquinimod sodium capsules, 0.6 mg/capsule was packed into four different types of blisters: PVC/AC/PVDC/PVLE/P058 504 142 (transparent), PVC/PE-EVOH/AC (A 300) G03 140 MM (transparent), A-/PVC/PE-EVOH/AC-PC (opaque), and KPMAX WH (opaque). Control was the same batch not exposed to sunlight in HDPE 50 cc DUMA™ bottle.

[5] = test system: acute experimental autoimmune encephalomyelitis (aEAE) model; details: U.S. Pat. No. 6,077,851; cited from earlier work
[6] = test system: active MRI lesions in relapsing MS; details: Polman et al. 2005; cited from earlier work

## CCN(C(=O)c1c(O)c2c(Cl)cccc2n(C)c1=O)c1ccccc1 [Laquinimod sodium]
[1]
  Oral bioavailability: high

## CCN(C(=O)c1c(O)c2c(O)cccc2n(C)c1=O)c1ccccc1 [Compound 5-HLAQ, N-Ethyl-N-phenyl-1,2-dihydro-4,5-di-hydroxy-1-methyl-2-oxo-3-quinolinecarboxamide]
[2]
  Stability in solvents: not stable

## CCN(C(=O)c1c(O)c2c(Cl)cccc2n(C)c1=O)c1ccccc1 [Laquinimod, N-ethyl-N-phenyl-1,2-dihydro-4-hydroxy-5-chloro-1-methyl-2-oxoquinoline-3-carboxamide]
[3]; Light chamber 310-400 nm (~8 hrs.), 0.05 mg/ml in 0.02M HCl
  Presence of 5-HLAQ (wt %): 1.5 wt %
[3]; Light chamber 310-400 nm (~8 hrs.), 0.05 mg/ml in 0.02M NaOH
  Presence of 5-HLAQ (wt %): 71 wt %
[3]; Light chamber 310-400 nm (~8 hrs.), 1 mg/ml in 0.02M NaOH, relative to laquinimod before photodegradation
  Presence of 5-HLAQ (wt %): 33 wt %
[3]; Sunlight cabinet (5 minutes), 0.09 mg/ml aqueous solution
  Presence of 5-HLAQ (wt %): 11.8 wt %
[4]
  Sensitivity to light: sensitive to light
[5]
  Efficacy in aEAE model: effective
[6]
  Development of active MRI lesions: can reduce development of active MRI lesions
